In patent US20230406821A1, “STRIGOLACTONE DERIVATIVES” (Plant Response, Inc., priority 2017, published 2023):

What was measured:
Z. mays = experiment: Root hair elongation in maize under insufficient phosphate; type: in vivo, Zea mays; details: various nutrient levels, shown under insufficient phosphate conditions, vs DMSO (FIG. 4)
From the text: FIG. 4 is a boxplot graph representing the distribution of maximum root hair length in the root apical zone of Z. mays with the control solvent DMSO, strigolactone molecule MBS-127 in DMSO, and strigolactone molecule MBS-128 in DMSO. Stars indicate significant differences relative to the DMSO control (*: adjustedp-value <0.1; p-values were adjusted for multiple-hypothesis testing using a Bonferroni correction). Representative images show root hairs in the root apical zone of plants treated with the control solvent DMSO, strigolactone molecule MBS-127 in DMSO, and strigolactone molecule MBS-128 in DMSO. Scale bars equal 10 mm.

[1] = system: Arabidopsis thaliana homozygous max4 knockout mutant; experiment: Complementation of ectopic shoot branching in max4 strigolactone biosynthesis mutant; type: in vivo; details: max4 mutant line, 10 μM in 0.5× Hoagland's reservoir solution, 0.1% DMSO, 3 weeks of treatment, vs DMSO control (FIG. 1)
From the text: FIG. 1 is a plot of the number of secondary bolts over 0.5 cm long of strigolactone biosynthesis mutant, homozygous max4 knockout, plants that have a primary bolt over 6 cm long treated with solution containing control solvent DMSO, strigolactone molecule MBS-127 in DMSO, and strigolactone molecule MBS-128 in DMSO. Stars indicate significant differences relative to the DMSO control based on the Welch's t-test (*: adjusted p-value <0.1; p-values adjusted for multiple-hypothesis testing
The ability of a novel compound to act in an equivalent manner to a native strigolactone can be assessed by testing its ability to complement phenotypes caused by mutations that disrupt the natural biosynthesis of strigolactones within the plant.
The metric used to assess branching was the number of secondary bolts over 0.5 cm in length in plants that have a primary bolt over 6 cm long. Assessments were made after treatments with solution containing control solvent DMSO, the strigolactone molecule MBS-127 in DMSO, and the strigolactone molecule MBS-128 in DMSO as detailed below. Stratified A. thaliana homozygous max4 knockout mutant seeds were planted on rockwool plugs suspended above reservoirs of 0.5× Hoagland's solution. The plants were grown under 16 hours of light per day at 22° C. and at 19° C. during the nights throughout the experiment. […]

[2] = system: S. lycopersicum cv. Micro-Tom; experiment: Stomatal conductance (LI-6400XT) after ABA treatment in tomato; type: in vivo, Solanum lycopersicum; details: 500 μM in DMSO (0.1%) applied one hour before ABA (100 μM), compared to ABA alone (FIG. 6)
From the text: FIG. 6 is a boxplot showing the distribution of tomato (S. lycopersicum cv. Micro-Tom) stomatal conductance (mmol/m^2/s) measurements taken via LI-6400XT, plotted by treatment. Plants treated with strigolactone molecule MBS-127 prior to treatment with abscisic acid (ABA) show increased stomatal conductance, as measured by gas exchange with the LI-6400XT, compared to plants treated with ABA alone. Stars indicate significant differences relative to ABA (*: adjusted P<0.05, **: adjusted P<0.01; p-values were adjusted for multiple-hypothesis testing using a Bonferroni correction).
An early response and critical component of abiotic stress response signaling in plants is the production and transport of the phytohormone abscisic acid (ABA) (Kuromori, T., et al., “ABA Transport and Plant Water Stress Responses,” Trends in Plant Science (2018) Vol. 23 (6), pp. 513-522). […]

| SMILES | root hair elongation (maximum root hair length in the root apical zone) (Z. mays) | ectopic branching phenotype (number of secondary bolts over 0.5 cm on plants with primary bolt over 6 cm) [1] | leaf (stomatal) conductance after ABA [2] |
| --- | --- | --- | --- |
| COC(=O)/C=C/OC1(C)C=C(C)C(=O)O1 (centres unmarked) [MBS-128, methyl (E)-3-((2,4-dimethyl-5-oxo-2,5-dihydrofuran-2-yl)oxy)acrylate] | induce root hair elongation | effective in reducing the ectopic branching phenotype |  |
| COC(=O)/C=C/OC1C=C(C)C(=O)O1 (centres unmarked) [MBS-127, 3-(4-Methyl-5-oxo-2,5-dihydro-furan-2-yloxy)-acrylic acid methyl ester] | induce root hair elongation | effective in reducing the ectopic branching phenotype | protect against the drought stress response related reduction in leaf conductance induced by ABA |
